Consider one compound from US8119667B2, “Carbonates of fenicol antibiotics” (Schering-Plough Animal Health Corporation, priority 2005, dated 2012).

Data set [1] can be described thus: Solubility in triacetin/benzyl alcohol 2:1 (volume/volume) solvent mixture. Type of data set: physicochemical. As to conditions: 20° C. The procedure:
Florfenicol parent drug was not soluble in triacetin/benzyl alcohol 2:1 (volume/volume) even at concentrations as low as 10% (weight/volume). […] The combination of prodrug of Example 14 at 275 mg/ml and florfenicol at 100 mg/ml was soluble in triacetin/benzyl alcohol 2:1 (volume/volume) and provided a stable solution with 30% (weight/volume) content of florfenicol (Table 4, supra, entry 12).

Data set [2] can be described thus: In vivo release of florfenicol: plasma levels after prodrug administration to cattle. As to conditions: for AUC: bovine, plasma, sc, 40 mg/kg. The procedure: The pharmacokinetic profile of active antibiotic after prodrug administration, in vivo, was determined, as follows: • 1. In vivo release of active antibiotic confirmed in two different animal species: • The prodrug compound of Example 18 was administered by an intravenous (“IV”) route to rat and cattle subjects, followed by determination of florfenicol concentrations in the plasma collected over time. • The data of Table 8, below, illustrates the plasma levels of florfenicol that resulted following IV administration of the prodrug compound of Example 18, to both rat and cattle. • 2. Active antibiotic is released from the prodrug irrespective of route of administration of the prodrug: • The data of Table 9, below, illustrates the plasma levels of florfenicol that resulted following administration of the prodrug compound of Example 2, by two different routes, i.e., IV and subcutaneous (“SC”). • 3. A dose-dependant increase in the release of active moiety: • The data of table 10, below, confirms a dose-dependent increase in the plasma levels of active antibiotic (florfenicol) following administration of rising doses of prodrug compound of Example 2. • 4. Time of release of active moiety: • a. […] The data of tables 13 and 14, below, confirms that the active antibiotic is quickly released from the prodrug compound of Example 2, when administered by the IV and SC routes in cattle. The release kinetics of the compound of Example 2 were compared with administration in a formulation with a triacetin/benzyl alcohol (ratio of 2:1 wt/vol) and with administration in a formulation of triacetin/2-pyrrolidinone (ratio of 2:1 wt/vol). The study was conducted in cattle (n=3).

Each structure is given as a SMILES string. Like-named read-outs stand apart in the source and are kept apart here.

As a reminder, the AUC is concentration integrated over time.

Consider `CCOC(=O)O[C@H](c1ccc(S(C)(=O)=O)cc1)[C@@H](CF)NC(=O)C(Cl)Cl` [Example 2, (1R,2S)-2-(2,2-dichloroacetamido)-3-fluoro-1-(4-(methylsulfonyl)phenyl)propyl ethyl carbonate], for which the “Solubility at selected concentration of contained florfenicol” value in data set [1] (10% weight/volume florfenicol), in data set [1] (20% weight/volume florfenicol), in data set [1] (25% weight/volume florfenicol), in data set [1] (30% weight/volume florfenicol), in data set [1] (35% weight/volume florfenicol) and in data set [1] (37% weight/volume florfenicol) was “soluble” each time. In data set [1] (40% weight/volume florfenicol), the “Solubility at selected concentration of contained florfenicol” value is “insoluble”. Further, the “time of release of active antibiotic (florfenicol) after administration” value in data set [2] (IV) is on record as “less than half an hour”. Further, the AUC in data set [2] (subcutaneous administration, read-out: Total Average AUC of the compound of Example 2 (unchanged prodrug)) worked out at 38000 ng·h/mL; in data set [2] (subcutaneous administration, read-out: Total Average AUC of the compound of Example 2 as Florfenicol Equivalent), 30400 ng·h/mL. For the same compound, the “converted to Florfenicol once absorbed from SC site” value in data set [2] (subcutaneous administration) is given as 83.5%.
